Measurements reported in the OPERA property sets (Mansouri et al. 2018).

Details: for log10 BCF / log10 biotransformation half-life (days): fish

Compound | melting point | boiling point | further results
OC(c1ccc(Cl)cc1)(c1ccc(Cl)cc1)C(Cl)(Cl)Cl | 77.5 °C | – | log10 Koc (L/kg): 3.7; log10 vapour pressure (mmHg): -6.4; ready biodegradability: not readily biodegradable; log10 BCF: 3.79; log10 biotransformation half-life (days): 1.99
CO[C@H]1[C@@H](O)[C@@H](C)O[C@H](O[C@H]2[C@H](Oc3cccc4c(O)c5c(=O)oc6ccc(C)c7c(=O)oc(c34)c5c67)O[C@H](C)[C@H](O)[C@@H]2O)[C@@H]1O | 185 °C | – | –
O=C(c1ccccc1)C(F)(F)F | -40 °C | 153 °C | –
C=CC[Si](C)(C)Cl | – | 111 °C | –
ClC1=C(Cl)C(Cl)(C2(Cl)C(Cl)=C(Cl)C(Cl)=C2Cl)C(Cl)=C1Cl | 122 °C | – | log10 Koc (L/kg): 4.52; log10 vapour pressure (mmHg): -5.66
C[C@H]1O[C@@H](O[C@H]2[C@@H](O)C[C@H](O[C@H]3[C@@H](O)C[C@H](O[C@H]4CC[C@@]5(C)[C@H](CC[C@@H]6[C@@H]5CC[C@]5(C)[C@@H](C7=CC(=O)OC7)CC[C@]65O)C4)O[C@@H]3C)O[C@@H]2C)C[C@H](O)[C@@H]1O | 256 °C | – | –
C=CCOC(=O)CC | – | 124 °C | –
Brc1cscc1Br | 4.5 °C | 222 °C | –
Brc1c(Br)c(Br)c(Br)c(Br)c1Br | 326 °C | – | ready biodegradability: not readily biodegradable; log10 BCF: 3; log10 biotransformation half-life (days): 0.43
O=C1c2ccccc2-c2ccc(Cl)cc21 | 126 °C | – | –
CN(C)c1ccc(N=NS(=O)(=O)O)cc1 | – | – | log10 Koc (L/kg): 1.18
C=CC(=O)OC | -76.5 °C | 80.2 °C | log10 vapour pressure (mmHg): 1.94; ready biodegradability: readily biodegradable
Nc1c(I)cc(I)c(C(=O)N(CCC(=O)O)c2ccccc2)c1I | 134 °C | – | –
CCCCCCCCCCCCCC(=O)OCC | 12.3 °C | 295 °C | –
BrC(Br)(Br)c1ccc2ccccc2n1 | 128 °C | – | –
COc1ccc2c(c1OC)C(=O)O[C@@H]2[C@H]1c2cc3c(cc2CCN1C)OCO3 | 132 °C | – | –
CCS(=O)(=O)O | -17 °C | – | –
Cc1cc(O)c2c(c1)C(=O)c1cc(O)cc(O)c1C2=O | 257 °C | – | –
CCCCCCCCCCCCCC(=O)N(CCO)CCO | – | – | ready biodegradability: readily biodegradable
CC(=O)O[C@]1(C(C)=O)CC[C@H]2[C@@H]3C=C(Cl)C4=CC(=O)CC[C@]4(C)[C@H]3CC[C@@]21C | 213 °C | – | –
CC/C=C\CCCC | -118 °C | 123 °C | –
Cc1cccc(C(C)(C)C)c1O | 31 °C | 230 °C | ready biodegradability: not readily biodegradable

Compound | melting point | boiling point | further results
O=[N+]([O-])c1ccc(O)cc1O | 122 °C | – | –
CC(C)=NNc1ccccc1 | 42 °C | – | –
Cn1ccc(=O)n(C)c1=O | 120 °C | – | log10 vapour pressure (mmHg): -2.26
CC(C)CCSSCCC(C)C | – | 247 °C | –
COc1ccccc1-c1ccccc1 | 29 °C | 274 °C | –
O=[N+]([O-])c1ccc(N=C=S)cc1 | 111 °C | – | –
O=C(O)CS(=O)(=O)CC(=O)O | 182 °C | – | –
C=CC(=O)Oc1c(Br)cc(Cl)c2cccnc12 | 100 °C | – | –
N#Cc1cccc2ccccc12 | 37.5 °C | 299 °C | –
CC(C)c1cccc(O)c1 | 26 °C | 228 °C | log10 vapour pressure (mmHg): -1.16
O=C1CCCCN1 | 39.5 °C | 256 °C | log10 vapour pressure (mmHg): -2.36
CC1(C)[C@H](C(=O)O[C@@H](C#N)c2cccc(Oc3ccccc3)c2)[C@@H]1C=C(Cl)Cl (single isomer, unassigned) | – | – | log10 biotransformation half-life (days): 0.7
NC(=O)CC[C@H](N)C(=O)O | – | – | ready biodegradability: readily biodegradable
CC(Cl)(Cl)[N+](=O)[O-] | – | 124 °C | log10 vapour pressure (mmHg): 1.23
Brc1ccc(Oc2ccc(Br)c(Br)c2Br)c(Br)c1 | – | – | log10 Koa: 11.7; log10 vapour pressure (mmHg): -8.14; logP: 7.37; log10 biotransformation half-life (days): 1.34
CC(=O)CC(C)(C)N | – | 180 °C | log10 vapour pressure (mmHg): -0.699
C#CCBr | – | 89 °C | log10 Henry constant (atm·m³/mol): -2.95
c1ccc(C2CCc3ccccc3O2)cc1 (stereo not drawn) | 46.3 °C | 332 °C | –
COc1cccc([N+](=O)[O-])c1C | 55 °C | – | –
Clc1ccc(-c2ccc(Cl)c(Cl)c2Cl)c(Cl)c1 | – | – | log10 Henry constant (atm·m³/mol): -4.18
Cc1ccccc1CO[C@H]1C[C@]2(C(C)C)CC[C@@]1(C)O2 (single isomer, unassigned) | – | 313 °C | log10 Koc (L/kg): 2.6; log10 vapour pressure (mmHg): -4.12
ICCCCI | 5.8 °C | – | –

Compound | melting point | boiling point | further results
C=C(C)CCCCCCCCCCC | – | – | log10 biotransformation half-life (days): 0.73
CN1CCOCC1 | – | 116 °C | –
O=C(O)CCc1ccc(O)cc1 | 131 °C | – | –
Clc1cccnc1Cl | 66 °C | – | –
c1ccc2nnccc2c1 | 38 °C | – | –
ClCCc1ccccc1 | – | – | ready biodegradability: not readily biodegradable
C=Cc1ccc(O)cc1 | 73.5 °C | – | log10 vapour pressure (mmHg): -1.85
O=C(O)Cc1cc(O)ccc1O | 153 °C | – | –
C=CCOc1ccccc1 | – | 192 °C | –
Cc1ccc(N(CCO)CCO)cc1 | – | 339 °C | –
c1ccc(C2CCOCO2)cc1 (stereo not drawn) | – | 247 °C | –
N#CCCN1CCCCC1 | -6.8 °C | – | –
CCCC(C)C(C)(C)CC (stereo not drawn) | – | 162 °C | –
COc1c(Cl)cc(Cl)c(Cl)c1Cl | – | – | log10 BCF: 3.34
Cn1nc2ccc(NC(=O)c3ccccc3)cc2n1 | 166 °C | – | –
CC1CCCC(=O)C1 (stereo not drawn) | – | 170 °C | log10 vapour pressure (mmHg): 0.176
CC(C)NCC(O)c1cc(O)cc(O)c1 (stereo not drawn) | 100 °C | – | –
OB(O)c1ccc(Cl)cc1 | 286 °C | – | –
NCCCN1CCN(CCCN)CC1 | 15 °C | – | –
NCC1CCNCC1 | 25 °C | 200 °C | –
Oc1ccccc1 | 40.9 °C | 182 °C | log10 Henry constant (atm·m³/mol): -6.48; log10 Koc (L/kg): 1.43; log10 vapour pressure (mmHg): -0.456; ready biodegradability: readily biodegradable; log10 BCF: 1.24
CCNc1cccc2ccccc12 | – | 305 °C | ready biodegradability: not readily biodegradable; log10 BCF: 2.32; log10 biotransformation half-life (days): 0.43

Compound | melting point | boiling point | further results
C=C(C)C(=O)OCC | – | 117 °C | log10 vapour pressure (mmHg): 1.31
Cc1ccnc(NS(=O)(=O)c2ccc(N)cc2)n1 | 236 °C | – | –
COc1cc(Cl)c(Cl)c(Cl)c1Cl | 84 °C | – | log10 BCF: 3.67
COC(=O)C(C)N(C(=O)c1ccccc1)c1ccc(F)c(Cl)c1 (stereo not drawn) | 85 °C | – | –
CCCCCCCCCCCCCCCCC1CCCCC1 | 33.6 °C | 385 °C | –
NC[C@H]1CCCO1 | – | 153 °C | –
Clc1cnccn1 | – | 154 °C | –
CC(C)(C1CCCCC1)C1CCCCC1 | 15.6 °C | 286 °C | –
CN1CC[C@]23c4c5ccc(OCCN6CCOCC6)c4O[C@H]2[C@@H](O)C=C[C@H]3[C@H]1C5 | 91 °C | – | –
COC(=O)[C@@H]1CCCN1C(=O)COC(=O)c1ccccc1 | 72.5 °C | – | –
OCCO | – | 197 °C | log10 Henry constant (atm·m³/mol): -7.22; log10 vapour pressure (mmHg): -1.04; ready biodegradability: readily biodegradable
CCCCCCCCCCCCCCC(=O)O | 52.3 °C | 339 °C | log10 vapour pressure (mmHg): -6.36
Oc1ccc2c(c1)[C@@]13CCCC[C@@]1(O)[C@@H](C2)N(CC1CCC1)CC3 | 216 °C | – | –
CC(C)CCSCCC(C)C | -74.6 °C | 211 °C | log10 vapour pressure (mmHg): -0.497
c1ccc2c(c1)NCCN2 | 99 °C | 289 °C | –
CCS(=O)(=O)CCO | 46 °C | – | –
O=C(O)[C@@H]1CCCO1 | 21 °C | – | –
C[Si](C)(C)O[Si](C)(C)C | -66 °C | 99 °C | log10 vapour pressure (mmHg): 1.62
OCCOCCOCCOCCO | – | 328 °C | log10 vapour pressure (mmHg): -4.33
C[C@H](Oc1ccc(Oc2nc3ccc(Cl)cc3o2)cc1)C(=O)O | 158 °C | – | –
